From patent publication US20130102627A1, “Acridines As Inhibitors Of Haspin And DYRK Kinases” (THE BRIGHAM AND WOMEN'S HOSPITAL, INC., priority 2010, published 2013)

Tests used:
Assay type in all cases: biochemical
[1] = molecular target: T1, human Haspin (MBP-Haspin) (Homo sapiens, UniProt Q8TF76); assay: TR-FRET Haspin assay; settings: for haspin inhibitory activity (SAR, in words): compared with LDN-192960
T1 construct: This full-length Haspin gene was cloned into the pMALc2E vector; made in house; host or cells: E. coli Rosetta2(DE3)pLysS
T1 sequence (Q8TF76 1-798): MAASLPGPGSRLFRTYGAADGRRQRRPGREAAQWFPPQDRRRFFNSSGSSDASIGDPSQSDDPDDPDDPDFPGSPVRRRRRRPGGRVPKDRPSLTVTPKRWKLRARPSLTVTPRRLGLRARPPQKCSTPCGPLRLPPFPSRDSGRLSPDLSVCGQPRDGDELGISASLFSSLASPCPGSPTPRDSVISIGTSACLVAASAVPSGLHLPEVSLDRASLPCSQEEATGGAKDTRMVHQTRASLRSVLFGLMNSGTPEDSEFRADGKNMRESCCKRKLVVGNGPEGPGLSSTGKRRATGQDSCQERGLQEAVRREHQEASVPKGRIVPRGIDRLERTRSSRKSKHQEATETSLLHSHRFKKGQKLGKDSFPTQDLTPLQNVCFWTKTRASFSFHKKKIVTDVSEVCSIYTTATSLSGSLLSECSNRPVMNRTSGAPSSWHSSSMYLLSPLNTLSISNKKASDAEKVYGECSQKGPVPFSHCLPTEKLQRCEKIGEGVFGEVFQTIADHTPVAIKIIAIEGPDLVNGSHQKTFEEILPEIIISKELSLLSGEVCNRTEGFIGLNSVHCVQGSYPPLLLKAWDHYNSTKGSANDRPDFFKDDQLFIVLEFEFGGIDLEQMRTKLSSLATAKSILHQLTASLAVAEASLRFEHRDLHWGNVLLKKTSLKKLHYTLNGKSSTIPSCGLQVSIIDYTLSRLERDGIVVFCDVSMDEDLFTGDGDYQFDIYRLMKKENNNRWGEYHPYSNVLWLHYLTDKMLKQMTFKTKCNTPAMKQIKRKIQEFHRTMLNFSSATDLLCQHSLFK
Source text: To identify Haspin inhibitors by high throughput screening, a homogeneous kinase assay based on time-resolved fluorescence resonance energy transfer (TR-FRET) was designed. […] Such TR-FRET assays use a lanthanide donor species conjugated to a phospho-specific antibody that binds specifically to the product of kinase reaction labeled with an acceptor fluorophore. This induced proximity of the donor and acceptor fluorophores leads to resonance energy transfer, resulting in a detectable increase of TR-FRET signal.
In the assay described below, a Europium chelate, conjugated to an anti-Histone H3T3ph antibody, as the donor species was used. The acceptor fluorophore, allophycocyanin (APC) was used as a streptavidin conjugate that could bind to a biotinylated Histone H3 peptide substrate. […] Lanthanide ions like Europium have a much longer emission lifetime, often measured in hundreds of microseconds, compared with traditional organic reagents that have lifetimes measured on the scale of […]. TR-FRET assays are thus less susceptible to compound interference generated by short-lived compound or matrix component fluorescence. Furthermore, TR-FRET can be carried out in a homogeneous format that avoids time-consuming separation steps that introduce variability. Based on these properties TR-FRET based assay kinases have been widely used in high throughput screening.
The reaction was incubated for 10 minutes at room temperature. Reaction was terminated by the addition of 10 μl 50 mM EDTA, 2 nM Europium labeled anti-Histone H3T3ph antibody, 40 nM Streptavidin-APC.
Data were analyzed using GraphPad Prism Version 4 (GraphPad Software Inc, La Jolla, Calif.). No inhibitor (“MAX”) and Staurosporine inhibitor (“MIN”) controls were used to calculate Z′ values and signal to background ratios during the high throughput screen. […] Km concentrations were also determined by non-linear regression.
(§1) The human haspin kinase inhibitory activity of the various compounds was evaluated using the same assay utilized for the HTS, except in the presence of varying test compound concentrations. DYRK2 kinase inhibitory activity was measured by ^33P-incorporation into Woodtide peptide substrate in the presence of human DYRK2 containing an N-terminal GST-fusion protein and γ^33P-ATP.

[2] = molecular target: T2, human DYRK2 (GST-DYRK2) (Homo sapiens, UniProt Q92630); assay: DYRK2 inhibitor assay (33P incorporation into Woodtide peptide); settings: for IC50: DYRK2 assay of Example 7; for DYRK2 inhibitory activity (SAR, in words): compared with LDN-192960
T2 construct: purchased Carna Biosciences, Japan
T2 sequence (Q92630 1-601): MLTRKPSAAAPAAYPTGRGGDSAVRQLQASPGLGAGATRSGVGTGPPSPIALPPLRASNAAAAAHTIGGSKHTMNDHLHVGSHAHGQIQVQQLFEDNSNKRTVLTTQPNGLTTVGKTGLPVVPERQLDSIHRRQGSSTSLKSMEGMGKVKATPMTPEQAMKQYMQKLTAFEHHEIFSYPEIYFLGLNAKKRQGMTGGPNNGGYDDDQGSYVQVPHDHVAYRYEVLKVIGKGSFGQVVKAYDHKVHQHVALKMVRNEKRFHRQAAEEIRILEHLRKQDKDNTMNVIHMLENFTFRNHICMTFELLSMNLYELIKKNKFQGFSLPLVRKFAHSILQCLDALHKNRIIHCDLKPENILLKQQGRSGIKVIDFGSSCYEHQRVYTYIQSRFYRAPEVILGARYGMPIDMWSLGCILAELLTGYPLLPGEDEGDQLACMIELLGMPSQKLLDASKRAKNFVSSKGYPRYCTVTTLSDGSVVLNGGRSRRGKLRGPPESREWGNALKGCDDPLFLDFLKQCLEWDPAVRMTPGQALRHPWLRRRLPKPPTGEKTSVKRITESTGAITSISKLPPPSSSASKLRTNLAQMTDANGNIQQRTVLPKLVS
Experimental: Reactions were stopped after 10 minutes by addition of 30 mM EDTA followed by spotting 10 μl of the reaction mix on to P81 phosphocellulose filter (Whatman). […] Background level of ^33P incorporation was defined from control reaction lacking peptide.
as §1

[3] = molecular target: TRKB (Homo sapiens, UniProt Q16620); assay: Kinase profile panel IC50
TRKB, sequence (Q16620 32-822, species assumed): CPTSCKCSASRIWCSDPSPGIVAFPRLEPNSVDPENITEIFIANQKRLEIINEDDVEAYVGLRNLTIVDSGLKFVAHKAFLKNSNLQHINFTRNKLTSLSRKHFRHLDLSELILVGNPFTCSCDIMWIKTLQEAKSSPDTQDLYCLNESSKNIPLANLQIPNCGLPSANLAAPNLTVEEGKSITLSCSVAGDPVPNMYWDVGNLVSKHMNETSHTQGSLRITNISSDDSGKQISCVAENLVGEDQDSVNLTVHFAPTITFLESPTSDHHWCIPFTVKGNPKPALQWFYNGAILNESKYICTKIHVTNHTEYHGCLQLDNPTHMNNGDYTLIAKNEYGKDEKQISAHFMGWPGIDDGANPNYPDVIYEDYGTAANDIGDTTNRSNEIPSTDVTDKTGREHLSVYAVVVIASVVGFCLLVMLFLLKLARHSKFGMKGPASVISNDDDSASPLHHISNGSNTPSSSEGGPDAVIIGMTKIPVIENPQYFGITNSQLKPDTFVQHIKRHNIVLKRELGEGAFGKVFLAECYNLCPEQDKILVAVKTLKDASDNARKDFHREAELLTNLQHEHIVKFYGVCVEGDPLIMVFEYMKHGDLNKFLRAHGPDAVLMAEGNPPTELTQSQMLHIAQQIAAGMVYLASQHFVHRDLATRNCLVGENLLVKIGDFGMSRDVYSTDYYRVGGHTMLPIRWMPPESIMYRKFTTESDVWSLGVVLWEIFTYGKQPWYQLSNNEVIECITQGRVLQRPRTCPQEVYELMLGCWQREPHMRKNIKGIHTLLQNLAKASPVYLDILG

[4] = molecular target: ROS (Homo sapiens, UniProt P08922); assay: Kinase profile panel IC50
[5] = molecular target: HIPK1 (Homo sapiens, UniProt Q86Z02); assay: Kinase profile panel IC50
HIPK1, sequence (Q86Z02 whole entry, species assumed): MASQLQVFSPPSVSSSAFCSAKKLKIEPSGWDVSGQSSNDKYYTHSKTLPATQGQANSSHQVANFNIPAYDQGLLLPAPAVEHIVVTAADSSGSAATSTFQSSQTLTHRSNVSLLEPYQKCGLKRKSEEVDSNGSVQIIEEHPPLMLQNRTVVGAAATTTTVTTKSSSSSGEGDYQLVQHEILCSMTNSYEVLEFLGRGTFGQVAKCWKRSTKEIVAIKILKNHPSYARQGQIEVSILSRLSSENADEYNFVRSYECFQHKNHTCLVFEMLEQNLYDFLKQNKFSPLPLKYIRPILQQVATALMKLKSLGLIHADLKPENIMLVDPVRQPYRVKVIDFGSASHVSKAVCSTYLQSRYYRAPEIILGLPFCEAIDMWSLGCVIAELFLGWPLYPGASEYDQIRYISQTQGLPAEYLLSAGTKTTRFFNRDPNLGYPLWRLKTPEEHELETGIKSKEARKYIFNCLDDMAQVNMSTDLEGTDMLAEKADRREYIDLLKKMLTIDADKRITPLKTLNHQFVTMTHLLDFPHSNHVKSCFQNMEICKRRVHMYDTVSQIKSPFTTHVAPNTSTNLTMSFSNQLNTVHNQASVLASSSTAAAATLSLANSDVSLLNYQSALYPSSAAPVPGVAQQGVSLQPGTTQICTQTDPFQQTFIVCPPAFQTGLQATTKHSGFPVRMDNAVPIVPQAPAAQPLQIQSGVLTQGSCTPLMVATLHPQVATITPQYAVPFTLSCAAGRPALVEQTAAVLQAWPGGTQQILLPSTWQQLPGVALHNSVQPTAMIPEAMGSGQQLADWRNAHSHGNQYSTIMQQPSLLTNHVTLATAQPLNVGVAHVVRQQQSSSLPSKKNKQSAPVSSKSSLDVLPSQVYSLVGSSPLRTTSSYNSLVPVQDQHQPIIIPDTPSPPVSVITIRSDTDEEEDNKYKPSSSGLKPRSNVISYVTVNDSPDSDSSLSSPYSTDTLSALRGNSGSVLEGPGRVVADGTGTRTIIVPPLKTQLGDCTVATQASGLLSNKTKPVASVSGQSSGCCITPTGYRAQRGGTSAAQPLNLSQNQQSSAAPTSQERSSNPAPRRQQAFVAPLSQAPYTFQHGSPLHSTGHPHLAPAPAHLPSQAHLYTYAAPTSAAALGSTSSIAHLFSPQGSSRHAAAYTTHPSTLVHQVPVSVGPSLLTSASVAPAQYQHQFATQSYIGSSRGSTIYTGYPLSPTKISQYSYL

[6] = molecular target: HIPK2 (Homo sapiens, UniProt Q9H2X6); assay: Kinase profile panel IC50
HIPK2, sequence (Q9H2X6 whole entry, species assumed): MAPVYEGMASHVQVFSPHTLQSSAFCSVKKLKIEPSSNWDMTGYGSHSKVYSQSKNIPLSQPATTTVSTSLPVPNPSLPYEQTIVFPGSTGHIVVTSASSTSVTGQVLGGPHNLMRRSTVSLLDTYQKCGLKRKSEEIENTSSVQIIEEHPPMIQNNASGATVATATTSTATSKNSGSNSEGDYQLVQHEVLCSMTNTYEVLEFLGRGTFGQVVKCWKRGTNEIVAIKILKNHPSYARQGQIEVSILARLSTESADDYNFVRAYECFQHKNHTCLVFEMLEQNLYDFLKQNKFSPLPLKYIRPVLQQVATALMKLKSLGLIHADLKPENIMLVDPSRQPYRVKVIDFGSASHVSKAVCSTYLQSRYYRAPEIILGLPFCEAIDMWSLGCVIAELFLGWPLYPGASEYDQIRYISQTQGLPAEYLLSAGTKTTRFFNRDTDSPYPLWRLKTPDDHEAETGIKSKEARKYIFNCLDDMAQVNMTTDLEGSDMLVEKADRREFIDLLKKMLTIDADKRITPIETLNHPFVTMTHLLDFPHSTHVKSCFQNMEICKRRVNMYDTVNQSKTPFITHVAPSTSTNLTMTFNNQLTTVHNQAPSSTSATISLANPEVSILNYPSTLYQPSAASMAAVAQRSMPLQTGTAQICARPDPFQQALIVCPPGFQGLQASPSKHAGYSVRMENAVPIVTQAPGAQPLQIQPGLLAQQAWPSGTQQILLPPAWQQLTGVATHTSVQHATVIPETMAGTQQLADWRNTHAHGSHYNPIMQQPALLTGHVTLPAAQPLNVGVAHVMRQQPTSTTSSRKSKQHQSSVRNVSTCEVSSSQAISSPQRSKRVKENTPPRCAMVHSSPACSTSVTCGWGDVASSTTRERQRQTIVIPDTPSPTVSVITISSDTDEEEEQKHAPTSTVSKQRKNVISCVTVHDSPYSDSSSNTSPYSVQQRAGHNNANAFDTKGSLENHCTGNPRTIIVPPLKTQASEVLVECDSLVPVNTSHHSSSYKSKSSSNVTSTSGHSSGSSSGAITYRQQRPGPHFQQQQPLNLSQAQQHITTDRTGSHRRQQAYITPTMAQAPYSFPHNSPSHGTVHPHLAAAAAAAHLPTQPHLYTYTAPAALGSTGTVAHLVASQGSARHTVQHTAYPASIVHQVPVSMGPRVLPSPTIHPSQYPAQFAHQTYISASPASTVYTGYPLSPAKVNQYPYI

[7] = molecular target: PIM1 (Homo sapiens, UniProt P11309); assay: Kinase profile panel IC50
PIM1, sequence (P11309 whole entry, species assumed): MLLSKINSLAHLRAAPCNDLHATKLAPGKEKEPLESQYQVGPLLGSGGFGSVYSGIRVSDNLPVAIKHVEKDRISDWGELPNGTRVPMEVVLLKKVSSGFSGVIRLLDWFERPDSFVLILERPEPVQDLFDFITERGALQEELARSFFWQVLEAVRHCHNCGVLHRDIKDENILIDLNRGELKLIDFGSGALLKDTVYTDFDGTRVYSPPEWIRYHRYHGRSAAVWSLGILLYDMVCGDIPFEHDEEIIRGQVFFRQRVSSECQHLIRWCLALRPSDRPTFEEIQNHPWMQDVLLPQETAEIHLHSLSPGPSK

[8] = molecular target: PIM2 (Homo sapiens, UniProt Q9P1W9); assay: Kinase profile panel IC50
PIM2, sequence (Q9P1W9 whole entry, species assumed): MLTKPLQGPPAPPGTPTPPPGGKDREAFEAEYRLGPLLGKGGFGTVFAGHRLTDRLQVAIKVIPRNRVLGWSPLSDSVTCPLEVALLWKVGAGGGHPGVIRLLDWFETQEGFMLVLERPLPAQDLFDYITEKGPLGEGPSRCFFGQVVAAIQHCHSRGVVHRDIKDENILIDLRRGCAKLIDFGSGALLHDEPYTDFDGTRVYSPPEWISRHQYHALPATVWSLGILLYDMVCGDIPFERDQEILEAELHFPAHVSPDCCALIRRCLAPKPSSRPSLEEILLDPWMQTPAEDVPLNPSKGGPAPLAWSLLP

[9] = molecular target: T3, haspin (Homo sapiens, UniProt Q8TF76); assay: Carna Bioscience haspin assay
T3 construct: purchased Carna Bioscience (vendor's assay)
T3 sequence (Q8TF76 1-798): T1 sequence (Q8TF76 1-798)

[10] = tested on: panel of two hundred and seventy kinases; assay: Functional inhibition profiling against kinase panel at 10 μM; settings: panel of 270 kinases

Structure (SMILES)	IC50 ([1]; TR-FRET assay of Example 3) [µM]	IC50 [2] [µM]	haspin inhibitory activity (SAR, in words) [1]	DYRK2 inhibitory activity (SAR, in words) [2]	further results
COc1ccc2nc3c(c(SCCCN)c2c1)CCCC3 [LDN-211840]	< 0.5	< 10			
COc1cc(OC)c2nc3ccccc3c(NCCCN(C)C)c2c1 [LDN-209839]	> 20	> 10			
NCCCSc1c2cc(O)ccc2nc2ccc(O)cc12 [LDN-209838]	< 0.05	< 0.2			
COc1ccc2nc3ccc(OC)cc3c(SCCN)c2c1 [LDN-209958]	< 0.2	< 0.5	reduced activity		
COc1ccc2nc3ccc(Cl)cc3c(SCCCN)c2c1 [LDN-209929]	< 0.1	< 10		not as tolerated	selectivity for haspin versus DYRK2 [1]: 180 fold; IC50 ([1]; text of SAR study): < 0.06 µM
COc1ccc2nc3ccc(C)cc3c(SCCCN)c2c1 [LDN-209928]	< 0.1	< 0.5		not as tolerated	IC50 ([1]; text of SAR study): < 0.1 µM
COc1ccc2nc3ccc(OC)cc3c(NCCCN)c2c1 [LDN-209962]	< 5	< 10	detrimental	detrimental to DYRK2 inhibition	
COc1ccc2nc(-c3ccccc3)cc(SCCCN)c2c1 [LDN-209964]	< 10	> 10			
COc1ccc2nc3ccc(OC)cc3c(CCCCN)c2c1 [LDN-209973]	< 0.05	< 0.5	retained potent inhibitory activity	tolerated	reduction in DYRK2 potency ([2]; relative to LDN-192960 (sulfur replaced with methylene)): 5 fold
COc1ccc2nc3ccc(OC)cc3c(OCCCN)c2c1 [LDN-209963]	> 20	> 20	detrimental	detrimental to DYRK2 inhibition	
COc1ccc2nc3ccc(OC)cc3c(SCCCN3C(=O)c4ccccc4C3=O)c2c1 [LDN-211848]	< 10		significant loss of activity	moderately potent	
CCN(CC)CCCNc1c2ccccc2nc2c(OC)cc(OC)cc12 [LDN-209840]	> 20	> 1			
COc1ccc2nc3ccccc3c(SCCCN)c2c1 [LDN-209856]	< 0.05	< 0.2		significant erosion of potency	IC50 ([1]; text of SAR study): < 0.1 µM
COc1cc2c(SCCCN)c3ccccc3nc2cc1Cl [LDN-209957]	< 0.1	< 10	still quite active	not tolerated	
COc1ccc2nc3ccc(OC)cc3c(SCCCCN)c2c1 [LDN-209959]	< 0.05	< 0.05	only a minimal impact on potency		
COc1ccc2nc3ccccc3c(SCCCN3C(=O)c4ccccc4C3=O)c2c1 [LDN-211849]	< 10	< 1	significant loss of activity		
COc1ccc2nc3ccc(OC)cc3c(SCCCN(C)C)c2c1 [LDN-212055]	< 0.05	< 0.5	slight decrease in activity		
NCCCSc1c2ccccc2nc2ccccc12 [LDN-209961]	< 10	< 10	inhibitory activity was dramatically reduced	very detrimental	
CNCCCSc1c2cc(OC)ccc2nc2ccc(OC)cc12 [LDN-209960]	< 0.01	< 0.2	equally potent		
COc1cc2nc3ccccc3c(SCCCN)c2cc1OC [LDN-192965]	> 20	> 10	loss of activity	loss in activity	
COc1ccc2nc3ccc(OC)cc3c(SCCCN)c2c1 [LDN-192960]					IC50 [3]: 91 µM; IC50 [4]: 1.6 µM; IC50 [5]: 1.4 µM; IC50 [6]: 1.3 µM; IC50 [7]: 0.72 µM; IC50 [8]: 56 µM; inhibition at 10 µM [9]: 100%; number of other kinases inhibited by ≧90% [10]: ten
